Test results published in PubChem BioAssay (NCI).
Where “and” joins values, the source holds several entries; their conditions need not be identical. Equal entries are not always repeated.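 Values below derive from 48-hour exposures of cells grown in 96-well plates, with endpoints linearly interpolated between the two concentrations bracketing the appropriate inhibition level. GI50 = concentration required for 50% inhibition of growth. At the TGI there is no net growth.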

How the values were obtained:
Experiment in all cases: NCI-60 cell line screen, 48 h
[1] = system: HOP-62 NSCLC
[2] = system: SW-620 colon
[3] = system: MOLT-4 leukemia
[4] = system: NCI-H522 lung
[5] = system: COLO 205 colon
[6] = system: OVCAR-5 ovarian
[7] = system: HS 578T breast
[8] = system: NCI-H23 lung
[9] = system: SF-539 CNS
[10] = system: UACC-62 melanoma
[11] = system: U251 CNS
[12] = system: 786-0 renal

| SMILES | TGI [1] | GI50 [2] | TGI [2] | TGI [3] | TGI [4] | GI50 [5] | TGI [5] | TGI [6] | GI50 [7] | TGI [7] | TGI [8] | TGI [9] | GI50 [10] | TGI [10] | GI50 [11] | TGI [11] | TGI [12] | GI50 [3] | GI50 [4] |
| --- | --- | --- | --- | --- | --- | --- | --- | --- | --- | --- | --- | --- | --- | --- | --- | --- | --- | --- | --- |
| CCCCCCCCCC[C@@H](O)[C@H]1CC[C@H]([C@H]2CC[C@H]([C@H](O)CCCCCCCCCC[C@@H]3CC(CC(C)=O)C(=O)O3)O2)O1 (stereo not given in full) | > 50 µM | 5.19 µM | > 50 µM | > 50 µM | > 50 µM | 6.71 µM | > 29.5 µM | > 50 µM | 8.36 µM | > 50 µM | > 50 µM | > 50 µM | 14.9 µM | > 50 µM | 7.12 µM | > 50 µM | > 50 µM | – | – |
| Cc1cc2c(c(C(=O)NCCC(=O)O)c1)Oc1c(cc(C)cc1C(=O)NCCC(=O)O)S2 | > 100 µM | – | > 100 µM | > 100 µM | > 100 µM | – | > 100 µM | > 100 µM | – | > 100 µM | > 100 µM | > 100 µM | – | > 100 µM | – | > 100 µM | > 100 µM | – | – |
| COC(=O)C1=C(C(=O)OC)C2OC1C1C2C2(C)C(C)=C(C)C1(C)S2=O (stereo not given) | 41.8 µM | – | 12.6 µM | > 100 µM | 6.49 µM | – | 13.8 µM | 38.8 µM | – | 51.4 µM | 25.8 µM | > 100 µM | – | 26.1 µM | – | 26.8 µM | 20.2 µM | – | – |
| N#Cc1c(N)[nH]c(=S)c(C#N)c1-c1cccc(Cl)c1 | > 100 µM | – | > 100 µM | 57.8 µM | 56.7 µM | – | 40.9 µM | > 100 µM | – | 94.1 µM | > 100 µM | > 100 µM | – | > 100 µM | – | > 100 µM | 34.2 µM | – | – |
| CCCCc1c(O)nc(Nc2nc3ccccc3[nH]2)[nH]c1=O | > 100 µM | – | > 100 µM | > 100 µM | > 100 µM | – | > 100 µM | > 100 µM | – | 88 µM | > 100 µM | > 100 µM | – | > 100 µM | – | > 100 µM | > 100 µM | – | – |
| O=c1oc2ccccc2c(O)c1C(c1cc(OCc2ccccc2)cc(OCc2ccccc2)c1)c1c(O)c2ccccc2oc1=O | 37 µM | – | > 43.8 µM | 19.8 µM | 37.9 µM | – | 33.8 µM | 34.5 µM | – | 89.3 µM | 23.1 µM | 36.7 µM | – | 15.7 µM | – | > 47.3 µM | 31.7 µM | – | – |
| COc1ccc(-c2c(C#N)c(S)n(C3OC(COC(C)=O)C(OC(C)=O)C(OC(C)=O)C3OC(C)=O)c(=O)c2C#N)cc1 (stereo not given) | 67.5 µM and > 100 µM | – | > 100 µM | > 100 µM | > 100 µM and 65.4 µM | > 100 µM and 40.7 µM | > 100 µM | > 100 µM | – | 93.7 µM and 95.5 µM | > 100 µM | > 100 µM | – | 97.9 µM and 61.9 µM | 36.8 µM and 75.2 µM | > 100 µM | > 100 µM and 80.9 µM | > 100 µM and 39.2 µM | 88.4 µM and 29.7 µM |
| Cc1ccc(N=Nc2c3c(c(O)c4ccccc24)CCC(C)(C)O3)cc1 | 36.6 µM | – | > 100 µM | > 100 µM | > 100 µM | – | 62.8 µM | 34.8 µM | – | 84.4 µM | 28.6 µM | > 100 µM | – | 28.1 µM | – | > 100 µM | > 100 µM | – | – |
| COc1ccc(-c2c(C#N)c(N)n(C3OC(CO)C(O)C(O)C3O)c(=S)c2C#N)cc1 (stereo not given) | > 100 µM | – | > 100 µM | > 100 µM | > 100 µM | – | – | > 100 µM | – | 47.4 µM | > 100 µM | > 100 µM | – | > 100 µM | – | > 100 µM | > 100 µM | – | 34.4 µM and 13.2 µM |
| CC12CC(c3ccccc3O1)C(C(=O)Nc1ccc(F)cc1)C(=O)N2 (stereo not given) | > 100 µM | – | > 100 µM | 76.5 µM | > 100 µM | – | > 100 µM | > 100 µM | – | > 100 µM | > 100 µM | > 100 µM | – | > 100 µM | – | > 100 µM | > 100 µM | – | – |
| CC[C@@H]1CC[C@@H]2[C@H](CC[C@]3(C)[C@@H](O)CC[C@@H]23)[C@H]1C(=O)O | > 100 µM | – | > 100 µM | > 100 µM | > 100 µM | – | > 100 µM | > 100 µM | – | > 100 µM | > 100 µM | > 100 µM | – | > 100 µM | – | > 100 µM | > 100 µM | – | – |
| Cc1cccc(N2C(=O)C3ON(C(C(N)=O)c4ccccc4)C(c4c5ccccc5c(Cl)c5ccccc45)C3C2=O)c1C (stereo not given) | 24.4 µM | – | > 50 µM | 10.2 µM | > 50 µM | – | 16.7 µM | 20.7 µM | – | > 50 µM | 32.1 µM | 16.8 µM | – | 13.8 µM | – | 15.6 µM | 20.5 µM | – | – |
| CC1C(c2cc(C(C)(C)C)c(O)c(C(C)(C)C)c2)c2cc3c(cc2OC1N1CCOCC1)OCO3 (stereo not given) | 33.4 µM | – | > 100 µM | > 100 µM | > 100 µM | – | > 100 µM | > 100 µM | – | 10.6 µM | 94.9 µM | 43.7 µM | – | 72.9 µM | – | – | 27.1 µM | – | – |
| O=C(Cc1nc2ccc(C(=O)c3ccccc3)cc2[nH]c1=O)C(=O)Nc1ccc(Br)cc1 | > 100 µM | – | > 100 µM | – | > 100 µM | – | – | > 100 µM | – | > 100 µM | > 100 µM | > 100 µM | – | > 100 µM | – | > 100 µM | > 100 µM | – | – |
| c1cc2nnc1SCCSCCSc1ccc(nn1)SCCSCCS2 | > 100 µM | – | > 100 µM | > 100 µM | > 100 µM | – | > 100 µM | > 100 µM | – | > 100 µM | > 100 µM | 96.8 µM | – | > 100 µM | – | > 100 µM | > 100 µM | – | – |
| Nc1nc(Cl)cc(NCC2(CO)CC(CCc3ccccc3)C2)n1 (stereo not given) | > 100 µM | – | > 100 µM | > 100 µM | > 100 µM | – | > 100 µM | > 100 µM | – | > 100 µM | > 100 µM | > 100 µM | – | > 100 µM | – | > 100 µM | > 100 µM | – | – |
| CC(C)(C)OC(=O)NC(C)(C)C(=O)NCCC(=O)O | > 100 µM | – | > 100 µM | > 100 µM | > 100 µM | – | > 100 µM | > 100 µM | – | > 100 µM | > 100 µM | > 100 µM | – | > 100 µM | – | > 100 µM | > 100 µM | – | – |
